Converted amounts (≈) assume the structure as drawn. The source made the active and inactive calls. The calls are words filed in the database; no cut-off is given here.
Legend:
[1] = biological target: T1, 5-hydroxytryptamine receptor 2B (Homo sapiens, UniProt P41595); test: Antagonist activity at human 5HT2B receptor expressed in CHO cells assessed as intracellular cAMP formation by RIA; format: functional, cell-based
[2] = biological target: T2, 5-hydroxytryptamine receptor 6 (Homo sapiens, UniProt P50406); test: Antagonist activity at human cloned 5HT6 receptor expressed in human HeLa cells assessed as intracellular cAMP formation by RIA; format: functional, cell-based
T2 sequence (P50406 whole entry): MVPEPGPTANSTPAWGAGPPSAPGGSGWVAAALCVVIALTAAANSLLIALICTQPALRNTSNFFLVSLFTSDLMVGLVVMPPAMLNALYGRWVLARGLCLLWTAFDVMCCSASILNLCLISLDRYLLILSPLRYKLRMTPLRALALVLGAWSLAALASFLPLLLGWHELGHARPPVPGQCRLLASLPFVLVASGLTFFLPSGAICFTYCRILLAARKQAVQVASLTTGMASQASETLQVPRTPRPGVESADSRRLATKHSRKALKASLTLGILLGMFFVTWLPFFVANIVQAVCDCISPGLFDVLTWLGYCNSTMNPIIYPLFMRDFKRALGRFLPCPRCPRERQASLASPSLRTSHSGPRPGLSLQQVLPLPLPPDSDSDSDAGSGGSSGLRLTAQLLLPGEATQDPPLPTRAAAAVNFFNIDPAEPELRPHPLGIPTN

[3] = biological target: T1, 5-hydroxytryptamine receptor 2B; test: Displacement of [3H]5HT from human 5HT2B receptor expressed in CHO cells by scintillation counting; format: cell-based
[4] = biological target: T2, 5-hydroxytryptamine receptor 6; test: Displacement of [3H]LSD from human 5HT6 receptor by scintillation counting
[5] = biological target: T1, 5-hydroxytryptamine receptor 2B; test: Agonist activity at human 5HT2B receptor expressed in CHO cells assessed as intracellular cAMP formation by RIA; format: functional, cell-based
Rattus norvegicus [6] = test: Cognitive enhancing effect in Long-Evans rat assessed as improvement of recognition memory at 3 mg/kg, ip administered 1 hr prior to learning trial measured after 48 hrs during testing trial by novel object recognition test; format: functional, organism-based; parameters: dose 3 mg/kg
[7] = biological target: 5-hydroxytryptamine receptor 1B (Homo sapiens, UniProt P28222); test: Binding affinity to 5HT1B receptor
5-hydroxytryptamine receptor 1B, sequence (P28222 whole entry): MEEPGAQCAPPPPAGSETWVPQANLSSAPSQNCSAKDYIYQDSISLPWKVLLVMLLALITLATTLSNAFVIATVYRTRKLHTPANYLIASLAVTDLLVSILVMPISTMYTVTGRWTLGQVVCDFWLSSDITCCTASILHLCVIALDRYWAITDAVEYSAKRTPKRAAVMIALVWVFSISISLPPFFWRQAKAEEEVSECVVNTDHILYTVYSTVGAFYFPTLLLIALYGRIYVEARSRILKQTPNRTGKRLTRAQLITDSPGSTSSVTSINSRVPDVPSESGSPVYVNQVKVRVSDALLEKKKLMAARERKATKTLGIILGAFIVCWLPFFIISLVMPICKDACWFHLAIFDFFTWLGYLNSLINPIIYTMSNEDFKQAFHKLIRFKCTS

[8] = Solubility at pH 7.4; format: physicochemical; conditions: buffer
Rattus norvegicus [9] = test: Permeability across blood brain barrier in Long-Evans rat at 10 mg/kg, ip administered as single dose; format: ADME, organism-based; parameters: dose 10 mg/kg, route intraperitoneal; conditions: in vivo
D(2) dopamine receptor = D(2) dopamine receptor (Homo sapiens, UniProt P14416); test: Binding affinity to dopamine D2 receptor
D(2) dopamine receptor, sequence (P14416 whole entry): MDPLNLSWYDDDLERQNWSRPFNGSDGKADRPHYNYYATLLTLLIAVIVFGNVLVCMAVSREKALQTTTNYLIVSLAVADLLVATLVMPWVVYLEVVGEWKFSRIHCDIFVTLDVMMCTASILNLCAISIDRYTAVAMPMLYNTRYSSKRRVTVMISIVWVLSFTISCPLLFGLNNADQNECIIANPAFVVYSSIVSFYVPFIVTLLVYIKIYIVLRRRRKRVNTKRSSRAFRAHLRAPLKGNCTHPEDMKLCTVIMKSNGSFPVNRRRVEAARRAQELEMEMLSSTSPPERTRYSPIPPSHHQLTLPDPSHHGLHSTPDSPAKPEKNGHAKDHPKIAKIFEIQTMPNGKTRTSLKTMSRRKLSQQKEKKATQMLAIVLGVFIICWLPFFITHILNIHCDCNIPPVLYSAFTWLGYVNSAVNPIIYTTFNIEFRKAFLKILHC

CYP3A4 = CYP3A4 (Homo sapiens, UniProt P08684); test: Inhibition of CYP3A4 at 3 uM; format: ADME
CYP3A4, sequence (P08684 whole entry): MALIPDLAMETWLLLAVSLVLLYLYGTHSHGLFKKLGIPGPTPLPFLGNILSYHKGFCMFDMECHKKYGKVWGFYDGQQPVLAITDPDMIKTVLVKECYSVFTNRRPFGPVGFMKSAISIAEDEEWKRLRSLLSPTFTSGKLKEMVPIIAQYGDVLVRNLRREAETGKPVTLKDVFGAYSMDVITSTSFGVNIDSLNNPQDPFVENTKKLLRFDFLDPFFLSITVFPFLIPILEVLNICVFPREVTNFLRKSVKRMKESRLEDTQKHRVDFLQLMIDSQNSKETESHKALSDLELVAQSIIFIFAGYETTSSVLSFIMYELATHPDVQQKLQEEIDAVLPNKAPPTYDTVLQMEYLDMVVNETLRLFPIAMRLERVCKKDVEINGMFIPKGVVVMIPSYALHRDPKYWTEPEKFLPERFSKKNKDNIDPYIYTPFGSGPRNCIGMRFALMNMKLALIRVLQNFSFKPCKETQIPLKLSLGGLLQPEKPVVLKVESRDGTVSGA

[10] = biological target: T3, Alpha-2A adrenergic receptor (Homo sapiens, UniProt P08913); test: Binding affinity to alpha2A adrenergic receptor
T3 sequence (P08913 whole entry): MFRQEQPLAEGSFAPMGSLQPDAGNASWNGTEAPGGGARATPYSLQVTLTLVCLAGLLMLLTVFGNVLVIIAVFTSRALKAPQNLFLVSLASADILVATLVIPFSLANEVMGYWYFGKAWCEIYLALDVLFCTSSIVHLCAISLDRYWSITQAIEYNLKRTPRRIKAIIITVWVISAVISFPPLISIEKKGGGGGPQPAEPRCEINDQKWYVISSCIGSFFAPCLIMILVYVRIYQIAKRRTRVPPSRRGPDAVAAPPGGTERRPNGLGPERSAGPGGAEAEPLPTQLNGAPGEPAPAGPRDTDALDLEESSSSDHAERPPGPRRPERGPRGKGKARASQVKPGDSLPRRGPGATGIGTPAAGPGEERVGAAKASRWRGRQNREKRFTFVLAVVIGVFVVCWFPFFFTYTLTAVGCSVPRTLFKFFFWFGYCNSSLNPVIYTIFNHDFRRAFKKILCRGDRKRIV

[11] = Half life in rat microsomes; format: ADME, Microsome
CYP2D6 = CYP2D6 (Homo sapiens, UniProt P10635); test: Inhibition of CYP2D6 at 3 uM; format: ADME
CYP2D6, sequence (P10635 whole entry): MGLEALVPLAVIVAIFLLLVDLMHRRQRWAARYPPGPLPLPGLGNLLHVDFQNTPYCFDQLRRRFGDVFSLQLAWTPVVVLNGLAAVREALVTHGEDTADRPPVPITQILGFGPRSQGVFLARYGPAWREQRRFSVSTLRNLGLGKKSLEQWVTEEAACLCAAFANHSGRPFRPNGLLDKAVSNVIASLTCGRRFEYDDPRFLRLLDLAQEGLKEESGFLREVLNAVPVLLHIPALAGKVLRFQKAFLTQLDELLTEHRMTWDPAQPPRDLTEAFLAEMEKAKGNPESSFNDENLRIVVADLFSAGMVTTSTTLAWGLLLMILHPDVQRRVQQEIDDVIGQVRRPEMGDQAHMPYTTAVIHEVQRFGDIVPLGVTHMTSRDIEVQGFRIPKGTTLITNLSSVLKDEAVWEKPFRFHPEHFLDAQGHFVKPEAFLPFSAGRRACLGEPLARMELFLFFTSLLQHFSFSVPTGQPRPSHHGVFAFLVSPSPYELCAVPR

[12] = biological target: T4, 5-hydroxytryptamine receptor 1A (Homo sapiens, UniProt P08908); test: Binding affinity to 5HT1A receptor
T4 sequence (P08908 whole entry): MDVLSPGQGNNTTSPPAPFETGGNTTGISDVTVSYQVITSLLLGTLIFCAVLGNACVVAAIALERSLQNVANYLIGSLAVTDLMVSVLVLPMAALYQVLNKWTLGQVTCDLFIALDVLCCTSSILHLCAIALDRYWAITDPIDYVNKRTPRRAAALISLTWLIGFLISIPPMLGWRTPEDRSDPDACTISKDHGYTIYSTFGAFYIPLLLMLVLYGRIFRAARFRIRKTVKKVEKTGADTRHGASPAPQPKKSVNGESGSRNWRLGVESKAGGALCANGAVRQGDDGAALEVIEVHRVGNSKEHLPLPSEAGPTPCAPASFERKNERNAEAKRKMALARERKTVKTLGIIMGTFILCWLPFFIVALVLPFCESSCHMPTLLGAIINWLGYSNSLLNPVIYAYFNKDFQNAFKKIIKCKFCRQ

CYP2C9 = CYP2C9 (Homo sapiens, UniProt P11712); test: Inhibition of CYP2C9 at 3 uM; format: ADME
CYP2C9, sequence (P11712 whole entry): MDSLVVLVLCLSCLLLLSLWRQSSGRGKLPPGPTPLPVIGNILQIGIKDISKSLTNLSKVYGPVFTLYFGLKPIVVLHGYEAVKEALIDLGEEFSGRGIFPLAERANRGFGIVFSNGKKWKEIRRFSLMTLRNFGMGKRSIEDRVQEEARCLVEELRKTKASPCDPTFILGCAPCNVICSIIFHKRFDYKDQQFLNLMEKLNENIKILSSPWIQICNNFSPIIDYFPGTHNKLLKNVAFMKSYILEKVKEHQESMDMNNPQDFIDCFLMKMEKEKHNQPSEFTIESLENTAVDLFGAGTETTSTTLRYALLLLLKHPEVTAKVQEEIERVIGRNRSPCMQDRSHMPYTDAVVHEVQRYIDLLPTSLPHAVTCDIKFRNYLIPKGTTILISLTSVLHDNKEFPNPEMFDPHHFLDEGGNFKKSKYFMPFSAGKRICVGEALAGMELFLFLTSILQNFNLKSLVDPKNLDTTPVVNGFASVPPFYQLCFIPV

hERG (KCNH2) = hERG (KCNH2) (Homo sapiens, UniProt Q12809); test: Inhibition of human ERG at 10 uM
hERG (KCNH2), sequence (Q12809 whole entry): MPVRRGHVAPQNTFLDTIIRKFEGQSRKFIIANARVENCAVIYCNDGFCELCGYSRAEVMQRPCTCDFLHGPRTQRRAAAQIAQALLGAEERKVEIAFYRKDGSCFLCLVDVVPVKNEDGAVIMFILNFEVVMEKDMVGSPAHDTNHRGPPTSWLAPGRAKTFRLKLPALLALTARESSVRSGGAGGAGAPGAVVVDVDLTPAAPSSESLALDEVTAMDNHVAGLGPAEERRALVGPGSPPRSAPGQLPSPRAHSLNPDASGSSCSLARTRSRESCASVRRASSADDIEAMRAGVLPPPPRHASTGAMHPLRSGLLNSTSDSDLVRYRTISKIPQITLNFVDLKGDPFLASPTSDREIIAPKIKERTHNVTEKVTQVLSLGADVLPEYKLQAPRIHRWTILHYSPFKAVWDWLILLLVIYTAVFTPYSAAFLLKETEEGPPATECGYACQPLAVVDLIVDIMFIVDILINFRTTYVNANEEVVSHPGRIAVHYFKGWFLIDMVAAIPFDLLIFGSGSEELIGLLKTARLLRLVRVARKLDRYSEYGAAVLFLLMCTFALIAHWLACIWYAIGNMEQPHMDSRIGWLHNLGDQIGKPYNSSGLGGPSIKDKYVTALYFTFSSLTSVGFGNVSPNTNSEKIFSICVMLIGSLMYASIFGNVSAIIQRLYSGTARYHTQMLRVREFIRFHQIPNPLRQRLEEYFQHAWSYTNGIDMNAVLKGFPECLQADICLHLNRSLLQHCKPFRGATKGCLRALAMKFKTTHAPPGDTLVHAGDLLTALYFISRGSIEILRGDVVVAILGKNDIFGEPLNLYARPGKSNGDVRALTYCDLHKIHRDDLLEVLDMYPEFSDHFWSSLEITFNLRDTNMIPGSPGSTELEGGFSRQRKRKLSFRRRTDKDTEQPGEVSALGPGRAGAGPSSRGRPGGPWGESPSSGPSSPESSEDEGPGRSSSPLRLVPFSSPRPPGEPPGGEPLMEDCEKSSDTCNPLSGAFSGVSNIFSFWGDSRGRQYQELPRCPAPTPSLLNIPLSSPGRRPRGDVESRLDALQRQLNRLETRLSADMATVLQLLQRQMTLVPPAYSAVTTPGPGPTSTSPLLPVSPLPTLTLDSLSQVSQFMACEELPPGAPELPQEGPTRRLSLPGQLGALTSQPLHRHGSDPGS

[13] = Permeability at pH 7.4 by PAMPA; format: ADME; conditions: read-out: permeability
[14] = biological target: 5-hydroxytryptamine receptor 1D (Homo sapiens, UniProt P28221); test: Binding affinity to 5HT1D receptor
5-hydroxytryptamine receptor 1D, sequence (P28221 whole entry): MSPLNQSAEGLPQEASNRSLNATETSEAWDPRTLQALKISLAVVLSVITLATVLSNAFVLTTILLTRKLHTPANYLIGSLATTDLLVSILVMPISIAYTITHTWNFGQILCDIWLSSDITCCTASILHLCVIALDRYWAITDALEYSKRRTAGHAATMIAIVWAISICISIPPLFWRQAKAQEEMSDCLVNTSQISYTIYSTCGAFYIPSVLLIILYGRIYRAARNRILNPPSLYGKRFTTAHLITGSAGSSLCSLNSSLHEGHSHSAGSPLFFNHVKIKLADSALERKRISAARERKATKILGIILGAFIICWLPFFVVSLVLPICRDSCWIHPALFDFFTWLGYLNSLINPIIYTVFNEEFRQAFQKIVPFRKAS

T1 sequence (P41595 whole entry): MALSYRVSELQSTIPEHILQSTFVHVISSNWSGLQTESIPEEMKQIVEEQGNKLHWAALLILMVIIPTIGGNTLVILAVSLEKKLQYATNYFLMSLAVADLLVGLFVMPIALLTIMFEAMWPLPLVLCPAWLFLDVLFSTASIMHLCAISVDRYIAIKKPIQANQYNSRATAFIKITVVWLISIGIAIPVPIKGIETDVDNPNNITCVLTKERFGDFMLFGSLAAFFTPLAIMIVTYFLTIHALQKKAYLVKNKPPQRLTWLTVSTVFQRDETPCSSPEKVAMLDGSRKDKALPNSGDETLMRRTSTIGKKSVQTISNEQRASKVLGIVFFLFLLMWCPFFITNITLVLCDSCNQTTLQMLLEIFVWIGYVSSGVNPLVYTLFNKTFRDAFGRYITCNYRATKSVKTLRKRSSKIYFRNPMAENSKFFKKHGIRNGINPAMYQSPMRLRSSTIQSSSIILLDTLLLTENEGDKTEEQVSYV

SMILES | Activity [1] | IC50 [2] [nM] | Ki [3] [nM] | Ki [4] [nM] | Activity [5] | further results
CN(C)[C@@H]1CCN(c2ccc3[nH]nc(S(=O)(=O)c4cccc5ccccc45)c3c2)C1 | Active | 39.6 | 423 | 0.51 | inactive | –
Cc1ccc(S(=O)(=O)c2n[nH]c3ccc(N4CCC(N)CC4)cc23)c2ccccc12 | Active | 26.7 | 493 | 3.62 | inactive | –
Cn1nc2ccc(N3CC[C@@H](N)C3)cc2c1S(=O)(=O)c1cccc2ccccc12 | Active | 444 | 455 | 54.3 | inactive | –
Cn1nc(S(=O)(=O)c2cccc3ccccc23)c2cc(N3CC[C@@H](N)C3)ccc21 | Active | 316 | 185 | – | inactive | –
NC1CCN(c2ccc3[nH]nc(S(=O)(=O)c4cccc5c(Cl)cccc45)c3c2)CC1 | Active | 70.1 | 78 | 4.52 | inactive | –
CN(C)[C@H]1CCN(c2ccc3[nH]nc(S(=O)(=O)c4cccc5ccccc45)c3c2)C1 | Active | 17.5 | 583 | 24.4 | inactive | –
CC(C)c1ccc(S(=O)(=O)c2n[nH]c3ccc(N4CCC(N)CC4)cc23)cc1 | Active | 51.7 | > 10000 | 13.1 | inactive | –
NC1CCN(c2ccc3[nH]nc(S(=O)(=O)c4cccc5ccccc45)c3c2)CC1 | Active | – | 100 | – | inactive | –
NC1CCN(c2ccc3[nH]nc(S(=O)(=O)c4cccc(Cl)c4)c3c2)CC1 | Active | 33.7 | 442 | – | inactive | –
CC(C)n1nc2ccc(N3CC[C@@H](N)C3)cc2c1S(=O)(=O)c1cccc2ccccc12 | Active | 380 | > 3300 | 48.7 | inactive | –
N[C@H]1CCN(c2ccc3[nH]nc(S(=O)(=O)c4cccc5ccccc45)c3c2)C1 | Active | – | 21 | – | inactive | –
CC(C)Cn1nc2ccc(N3CC[C@@H](N)C3)cc2c1S(=O)(=O)c1cccc2ccccc12 | Active | 433 | 260 | 75.8 | inactive | –
CC(C)n1nc(S(=O)(=O)c2cccc3ccccc23)c2cc(N3CC[C@@H](N)C3)ccc21 | Active | 157 | 191 | – | inactive | Activity (Rattus norvegicus [6]): Active
CC(C)Cn1nc(S(=O)(=O)c2cccc3ccccc23)c2cc(N3CC[C@@H](N)C3)ccc21 | Active | 203 | > 3300 | – | inactive | –
NC1CN(c2ccc3[nH]nc(S(=O)(=O)c4cccc5ccccc45)c3c2)C1 | Active | 16.5 | 97.9 | 3.55 | inactive | –
N[C@@H]1CCN(c2ccc3[nH]nc(S(=O)(=O)c4cccc5ccccc45)c3c2)C1 | Active | – | 274 | – | inactive | Ki [7]: 6040 nM; solubility [8]: 63 µg/mL (≈ 161 µM); pBBB (Rattus norvegicus [9]): 11 ×10⁻⁶ cm/s; Ki (D(2) dopamine receptor): 2910 nM; inhibition at 3 µM (CYP3A4): 88%; Ki [10]: > 10000 nM; half-life [11]: 20 min; inhibition at 3 µM (CYP2D6): 7%; Ki [12]: 4730 nM; inhibition at 3 µM (CYP2C9): 73%; inhibition at 10 µM (hERG (KCNH2)): 14%; Papp [13]: 0.19 ×10⁻⁶ cm/s; Ki [14]: 2270 nM
NC1CCN(c2ccc3[nH]nc(S(=O)(=O)c4ccc5ccccc5c4)c3c2)CC1 | Active | 88.9 | 1360 | 18.2 | inactive | –
